Experimental data taken from the supplement of paper PMC10307832.

Columns and labels:
Test in all cases: relative viability (nuclei count vs DMSO), 5 days (fraction); higher = more cells survive
[1] = compound: C1COCCN1C2=NC(=NC3=C2OC4=C3C=CC=N4)C5=CC(=CC=C5)NC(=O)C6=CN=C(C=C6)N + C[C@]1(O)C[C@@H](c2nc(-c3ccc4ccc(-c5ccccc5)nc4c3)c3c(N)nccn32)C1 [Linsitinib] (partner 1 µM)
Outline: (§1)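 Medians of duplicate plates are given as relative viability. That measure is the nuclei count in treated wells divided by the count in vehicle wells. Counts were taken on 4× images of lung cancer cell lines in 1536-well plates, 5 days after pin-tool dosing the day after seeding with one drug alone or a fixed anchor-drug dose plus five library-drug doses (not always all listed) in √10 steps.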

[2] = compound: Nc1ccccc1NC(=O)c1ccc(CNC(=O)OCc2cccnc2)cc1 [Entinostat] + Cc1nc(NC(=O)N2CCC[C@H]2C(N)=O)sc1-c1ccnc(C(C)(C)C(F)(F)F)c1 [Alpelisib] (partner 2 µM)
Outline: as §1

[3] = compound: CN1CCC(CNc2ccc3ncc(-c4cccc(OC(F)(F)F)c4)n3n2)CC1 [SGI-1776] + Nc1ncn([C@H]2C[C@H](O)[C@@H](CO)O2)c(=O)n1 [Decitabine] (partner 2 µM)
Outline: as §1

[4] = compound: CN1CCC(CNc2ccc3ncc(-c4cccc(OC(F)(F)F)c4)n3n2)CC1 [SGI-1776] + COc1cc2c(Oc3ccc(NC(=O)C4(C(=O)Nc5ccc(F)cc5)CC4)cc3F)ccnc2cc1OCCCN1CCOCC1 [Foretinib] (partner 0.25 µM)
Outline: as §1

| Cell Line | relative viability ([1]; first compound 0.02 µM) | relative viability ([1]; first compound 0.06325 µM) | relative viability ([1]; first compound 0.2 µM) | relative viability ([1]; first compound 0.6325 µM) | relative viability ([1]; first compound 2 µM) | relative viability ([2]; first compound 0.02 µM) | relative viability ([2]; first compound 0.06325 µM) | relative viability ([2]; first compound 0.2 µM) | relative viability ([2]; first compound 0.6325 µM) | relative viability ([2]; first compound 2 µM) | relative viability ([3]; first compound 0.08 µM) | relative viability ([3]; first compound 0.8 µM) | relative viability ([3]; first compound 2.53 µM) | relative viability ([3]; first compound 8 µM) | relative viability ([4]; first compound 0.08 µM) | relative viability ([4]; first compound 0.8 µM) | relative viability ([4]; first compound 2.53 µM) | relative viability ([4]; first compound 8 µM) |
| --- | --- | --- | --- | --- | --- | --- | --- | --- | --- | --- | --- | --- | --- | --- | --- | --- | --- | --- |
| LU99A | 0.517 | 0.583 | 0.435 | 0.353 | 0.236 | 0.517 | 0.5 | 0.546 | 0.418 | 0.324 | 0.859 | 0.872 | 0.94 | 0.876 | 0.868 | 0.8 | 0.784 | 0.41 |
| NCI-H1666 | 0.867 | 0.908 | 0.804 | 0.817 | 0.681 | 1.21 | 0.856 | 0.872 | 0.318 | 0.322 | 0.8 | 0.737 | 0.729 | 0.663 | 0.975 | 0.956 | 0.948 | 0.914 |
| NCI-H460 | 0.839 | 0.959 | 0.834 | 0.583 | 0.225 | 0.491 | 0.463 | 0.285 | 0.0307 | 0.0143 | 0.476 | 0.61 | 0.49 | 0.494 | 1.01 | 0.947 | 0.998 | 0.716 |
